Results published in patent publication US20160287534A1, “METHODS FOR REVERSING FIBROSIS” (The University of Connecticut, priority 2015, published 2016).

Columns and labels:
LX-2 cells [1] = assay: Reactive oxygen species (ROS) measurement in LX-2 cells stimulated with TGFβ1 or tBHP; format: cell-based
Method: Cellular ROS levels were measured in LX-2 cells as previously described (see Lee et al. J. Nutr. Biochem. 2013, vol. 25, iss. 4, pp. 404-411). Briefly, LX-2 cells were plated in a black 24-well plate (Wallac Oy, Turku, Finland). When cells reached ˜90% confluency, they were pre-incubated with 5, 10 or 25 μM ASTX for 24 h and subsequently stimulated with 2 ng/mL TGFβ1 or 10 μM tert-butyl hydrogen peroxide (tBHP, Sigma, St. Louis, Mo.) for additional 24 h. cells were then incubated with 5 μM dichlorofluorescein (Sigma, St. Louis, Mo.) for 30 min and fluorescence was read at an excitation wavelength of 485 nm and an emission wavelength of 530 nm. The data were expressed as fluorescent intensity per μg of cell protein.

LX-2 cells [2] = assay: qRT-PCR of TGFβ1-induced fibrogenic and TGFβ1 signaling genes in LX-2 cells; format: cell-based
Method: LX-2 cells were kindly provided by Dr. Scott Friedman at the Icahn School of Medicine at Mount Sinai (New York, N.Y.). Cells were maintained in low-glucose DMEM containing 2% FBS, 4 mM 1-glutamine, 100 U/mL penicillin and 100 μg/mL streptomycin in a 37° C. humidified cell culture chamber providing 5% CO2. LX-2 cells were incubated with varying concentrations of ASTX for 12 or 24 h, and subsequently activated by 2 ng/mL of TGFβ1 (Peprotech, Rocky Hill, N.J.) for 1 to 24 h. Primary mouse HSCs were plated on untreated petri dishes (BD Falcon, Franklin Lakes, N.J.) and maintained in low-glucose DMEM supplemented with 10% FBS, 4 mM L-glutamine, 100 U/mL penicillin and 100 μg/mL streptomycin in a 37° C. humidified cell culture chamber under 5% CO2. ASTX (25 μM) was added at day 2 or day 4 after plating until day 6 with daily media change. All cell culture supplies were purchased from HyClone (Thermo Scientific, Logan, Utah).
Total RNA extraction, cDNA synthesis, and qRT-PCR were conducted using a Bio-Rad CFX96 Real-Time system (Bio-Rad, Hercules, Calif.) as previously described (see Park et al. Nutr. Res. 2008, vol. 28, pp. 83-91; Rasmussen et al. J. Nutr. 2008, vol. 138, pp. 476-481). Gene sequences were obtained from the GenBank database and primers were designed using Beacon Designer (Premier Biosoft, Palo Alto, Calif.). Primer sequences are available (see supplemental table of Yang et al. Biochimica et Biophysica Acta 2015, vol. 1850, pp. 178-185).

primary HSCs = assay: Activation of primary mouse HSCs on untreated dishes (Example 1): α-SMA qRT-PCR, immunostaining, in-cell Western; format: cell-based, C57BL/6J mice
Excerpt: Primary HSCs were isolated from C57BL/6J mouse liver using the collagenase/pronase digestion method (see Weiskirchen et al. Fibrosis Research, 2005, vol. 117, pp. 99-113). In brief, mice were anesthetized with ketamine/xylazine (120/6 mpk) (Butler Schein, Dublin, Ohio). Abdominal and chest cavities were opened to expose the portal vein and to locate the heart and vena cava, respectively. Subsequently, a 20 G×1″ I.V. catheter (Terumo, Somerset, N.J.) was inserted into the vena cava through the right atrium and the portal vein was cut. A mouse liver was perfused at 5 mL/min with 25 mL SC-1 solution consisting of the following (per L); 8000 mg NaCl, 400 mg KCl, 88.17 mg NaH2PO4 2H2O, 120.45 mg Na2HPO4 12H2O, 2380 mg 4-(2-hydroxyethyl)-1-piperazineethanesulfonic acid (HEPES), 350 mg NaHCO3, 190 mg ethylene glycol tetraacetic acid, and 900 mg glucose, pH 7.2-7.3. The liver was, then, digested with 300 μg/mL pronase E (Roche, Mannheim, Germany) in SC-2 solution consisting of 8000 mg NaCl, 400 mg KCl, 88.17 mg NaH2PO4 2H2O, 120.45 mg Na2HPO4 12H2O, 2380 mg HEPES, 350 mg NaHCO3, and 560 mg CaCl2 2H2O, per L, pH 7.2-7.3, followed by 600 μg/mL collagenase D (Roche, Mannheim, Germany) in SC-2 solution at 5 mL/min for 5 min each. The digested liver was harvested and filtered through a 100 μm cell strainer (Fisher Scientific, Pittsburgh, Pa.). The hepatic cells were then centrifuged at 60×g for 1 min to separate non-parenchymal cells from hepatocytes. The supernatant containing non-parenchymal cells was separated based on density using a top layer of Gey's Balanced Salt Solution (GBSS), a middle layer of 10% Nycodenz (Axis-Shield, Scotland) and a bottom layer of 14.5% Nycodenz diluted in GBSS. The tube was centrifuged at 2100×g or 20 min and the primary HSCs were collected from the interface between the GBSS and 10% Nycodenz.
LX-2 cells were kindly provided by Dr. Scott Friedman at the Icahn School of Medicine at Mount Sinai (New York, N.Y.). […]

For `CC1=C(/C=C/C(C)=C/C=C/C(C)=C/C=C/C=C(C)/C=C/C=C(C)/C=C/C2=C(C)C(=O)C(O)CC2(C)C)C(C)(C)CC(O)C1=O` (centres unmarked) [ASTX, astaxanthin], the “increase in cellular ROS levels induced by TGFβ1” value (LX-2 cells [1]; 25 μM ASTX, 2 ng/mL TGFβ1) was “completely abolished”, the “increase in cellular ROS levels induced by tBHP” value (LX-2 cells [1]; 25 μM ASTX, 10 μM tBHP) was “completely abolished” and the “cellular ROS levels increased by TGFβ1 and tBHP” value (LX-2 cells [1]; LX-2 cells pretreated with 5, 10 or 25 μM ASTX 24 h (FIGS. 1B, 1C)) was “decreased”. The “induction of α-SMA mRNA by TGFβ1” value (LX-2 cells [2]; 25 μM ASTX, 3 and 12 h of TGFβ1 stimulation (FIG. 2A)) was “significantly inhibited”, the “induction of Col1A1 mRNA by TGFβ1” value (LX-2 cells [2]; 25 μM ASTX, 12 h of TGFβ1 stimulation (FIG. 2A)) was “significantly inhibited” and the “induction of the fibrogenic genes by TGFβ1” value (LX-2 cells [2]; 10 and 25 μM ASTX, TGFβ1 24 h (FIG. 2B)) was “significantly inhibited”. For the same compound, the “TGFβ-induced increases in mRNA levels of TβRI and TβRII” value (LX-2 cells [2]; LX-2 cells, 25 μM ASTX (FIG. 5C)) was “almost completely abolished”, the “TGFβ1-induced expression of α-SMA and Col1A1 mRNA” value (LX-2 cells [2]; LX-2 cells, 25 μM ASTX, 2 ng/mL TGFβ1 24 h (FIG. 3A)) was “significantly attenuated” and the “TGFβ1-induced increase in mRNA levels of Smad2, Smad3 and Smad7” value (LX-2 cells [2]; LX-2 cells, 25 μM ASTX, TGFβ1 12 h (FIG. 5C)) was “abolished or significantly attenuated”. The “basal expression levels of α-SMA and Col1A1 mRNA” value (LX-2 cells [2]; LX-2 cells, 25 μM ASTX, no TGFβ1 (FIG. 3A)) was “did not alter”, the “TGFβ1-induced NOX4 mRNA levels” value (LX-2 cells [2]; LX-2 cells, P=0.074) was “decreased TGFβ1-induced NOX4 mRNA levels although it did not reach statistical significance” and the “α-SMA mRNA levels” value (primary HSCs; 25 μM ASTX added for 2 days during HSC activation (FIG. 6A)) was “significantly reduced”. For the same compound, the “decrease of α-SMA protein (in-cell Western)” value (primary HSCs; ASTX treatment at days 0, 2 and 4 until day 6, vs control without ASTX (FIG. 6C)) was 30-40% and the “α-SMA protein levels (immunostaining)” value (primary HSCs; day 4 of incubation, ASTX for 2 days (FIG. 6B)) was “markedly decreased”.
